Assay results from ChEMBL document CHEMBL1140449, “Preliminary studies of new proteasome inhibitors in the tumor targeting approach: synthesis and in vitro cytotoxicity” (J Med Chem, 2005).
Where a SMILES comes first, the peptide text is derived from it. The star is where a group is joined. Cbz = O=C(OCc1ccccc1)*

Assay: Inhibitory concentration for cytotoxic activity against human ocular melanoma IPC227F cells upon incubation for 48 h at 37 °C; No inhibition; call rule not given here
With CCN(CC)CCNC(=O)c1ccc(C(=O)N[C@H](C=O)CC(C)C)cc1 the IC50 was “Not Active”.
For CCN(CC)CCNC(=O)c1ccc(C(=O)N[C@@H](CC(C)C)C(=O)N[C@H](C=O)CC(C)C)cc1, the IC50 was “Not Active”.

Assay: Inhibitory concentration for cytotoxic activity against human ocular melanoma IPC227F cells upon incubation for 48 h at 37 °C
In the case of CCN(CC)CCNC(=O)c1ccc(C(=O)N[C@@H](Cc2ccccc2)C(=O)N[C@@H](CC(C)C)C(=O)N[C@H](C=O)CC(C)C)cc1, the IC50 is reported as 11900 nM.
With CCN(CC)CCNC(=O)c1ccc(C(=O)N[C@@H](Cc2ccccc2)C(=O)N[C@H](C=O)CC(C)C)cc1 the IC50 was 20900 nM.
For CC(C)C[C@@H](C=O)NC(=O)[C@H](CC(C)C)NC(=O)[C@H](CC(C)C)NC(=O)OCc1ccccc1 [MG-132] (Cbz-Leu-Leu-Leu-aldehyde), the IC50 was 77 nM.
In the case of CCN(CC)CCNC(=O)c1ccc(C(=O)N[C@@H](CC(C)C)C(=O)N[C@@H](CC(C)C)C(=O)N[C@H](C=O)CC(C)C)cc1, the IC50 is reported as 640 nM.
In the case of CCN(CC)CCNC(=O)c1ccc(C(=O)N[C@@H](CC(C)C)C(=O)N[C@@H](Cc2ccccc2)C(=O)N[C@H](C=O)CC(C)C)cc1, the IC50 is reported as 2840 nM.
